Data reported in the supplement of paper PMC11061612.

Columns and labels:
Experiment in all cases: combination Emax (second highest fraction inhibited in the dose matrix, 72 h); higher = more inhibition; extreme values may be limits of the assay
[1] = system: SW1710 (Bladder Carcinoma)
Summary of the method: (§1)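 Cell lines in DMEM/F12 or RPMI with 10% FBS were plated in 1536-well plates, held 24 hours at 37°C, 5% CO2, then given two-drug dose matrices for 72 hours (DMSO typically 0.2%). Viability was read by CellTiter-Glo 2.0 luminescence and scaled as inhibition from 0 (vehicle wells) to 1 (blank wells). Combination Emax is the second-highest inhibition in the matrix; Bliss excess is observed combination effect minus expected EA + EB − EA·EB, EA and EB being single-agent effects.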

[2] = system: TGBC1TKB (Biliary Tract Carcinoma)
Summary of the method: as §1

[3] = system: LCLC-97TM1 (Non-Small Cell Lung Carcinoma)
Summary of the method: as §1

[4] = system: L-428 (Hodgkin's Lymphoma)
Summary of the method: as §1

[5] = system: KMRC-20 (Kidney Carcinoma)
Summary of the method: as §1

[6] = system: LNZTA3WT4 (Low Grade Glioma)
Summary of the method: as §1

[7] = system: ESS-1 (Other Solid Carcinomas)
Summary of the method: as §1

[8] = system: SW1573 (Lung Adenocarcinoma)
Summary of the method: as §1

[9] = system: YAPC (Pancreatic Carcinoma)
Summary of the method: as §1

[10] = system: HH (T-Cell Non-Hodgkin's Lymphoma)
Summary of the method: as §1

MPP-89 (Mesothelioma) = system: MPP-89 (Mesothelioma)
Summary of the method: as §1

[11] = system: Hs-746T (Gastric Carcinoma)
Summary of the method: as §1

[12] = system: HuH-7 (Hepatocellular Carcinoma)
Summary of the method: as §1

BPH-1 (Non-Cancerous) = system: BPH-1 (Non-Cancerous)
Summary of the method: as §1

[13] = system: SAS (Oral Cavity Carcinoma)
Summary of the method: as §1

[14] = system: CAL-33 (Oral Cavity Carcinoma)
Summary of the method: as §1

BE2-M17 (Neuroblastoma) = system: BE2-M17 (Neuroblastoma)
Summary of the method: as §1

[15] = system: WSU-NHL (B-Cell Non-Hodgkin's Lymphoma)
Summary of the method: as §1

CAL-72 (Osteosarcoma) = system: CAL-72 (Osteosarcoma)
Summary of the method: as §1

[16] = system: NCI-H209 (Small Cell Lung Carcinoma)
Summary of the method: as §1

| SMILES | combination Emax [1] | combination Emax [2] | combination Emax [3] | combination Emax [4] | combination Emax [5] | combination Emax [6] | combination Emax [7] | combination Emax [8] | combination Emax [9] | combination Emax [10] | combination Emax (MPP-89 (Mesothelioma)) | combination Emax [11] | combination Emax [12] | combination Emax (BPH-1 (Non-Cancerous)) | combination Emax [13] | combination Emax [14] | combination Emax (BE2-M17 (Neuroblastoma)) | combination Emax [15] | combination Emax (CAL-72 (Osteosarcoma)) | combination Emax [16] |
| --- | --- | --- | --- | --- | --- | --- | --- | --- | --- | --- | --- | --- | --- | --- | --- | --- | --- | --- | --- | --- |
| C=CCn1c(=O)c2cnc(Nc3ccc(N4CCN(C)CC4)cc3)nc2n1-c1cccc(C(C)(C)O)n1 [AZD1775] + C1CN(CCC1(C(=O)N[C@@H](CCO)C2=CC=C(C=C2)Cl)N)C3=NC=NC4=C3C=CN4 [Capivasertib] (first compound max 3 µM, partner max 3 µM) | 0.475 | 0.434 | 0.793 | 0.759 | 0.711 | 0.804 | 0.949 | 0.572 | 0.591 | 0.567 | 0.685 | 0.772 | 0.471 | 0.929 | 0.798 | 0.929 | 0.906 | 1 | 0.845 | 0.873 |
| COc1nnc2ccc(N3CCC(c4ccc(OCCN5CCN(C)C(=O)[C@H]5C)cc4)CC3)nn12 [AZD5153] + C[C@@H]1COCCN1C2=NC(=NC(=C2)C3(CC3)[S@](=N)(=O)C)C4=C5C=CNC5=NC=C4 [AZD6738] (first compound max 1 µM, 7x7, partner max 10 µM) | 0.396 | 0.508 | 0.87 | 0.929 | 0.775 | 0.809 | 0.949 | 0.557 | 0.529 | 0.491 | 0.604 | 0.63 | 0.724 | 0.831 | 0.921 | 0.839 | 0.92 | 0.99 | 0.784 | 0.908 |
| CCN(CCO)CCCOc1ccc2c(Nc3cc(CC(=O)Nc4cccc(F)c4)[nH]n3)ncnc2c1 [AZD2811] + O=C(c1cc(Cc2n[nH]c(=O)c3ccccc23)ccc1F)N1CCN(C(=O)C2CC2)CC1 [Olaparib] (first compound max 1 µM, 7x7, partner max 10 µM) | 0.185 | 0.0912 | 0.319 | 0.348 | 0.24 | 0.223 | 0.63 | 0.221 | 0.147 | 0.0537 | 0.189 | 0.232 | 0.174 | 0.566 | 0.197 | 0.732 | 0.354 | 0.931 | 0.322 | 0.971 |
| Cc1c2c(nn1C)CSCc1cc(n(C)n1)CSc1cc(c3ccccc3c1)OCCCc1c(C(=O)O)n(C)c3c-2c(Cl)ccc13 [AZD5991] + C[C@@H]1COCCN1C2=NC(=NC(=C2)C3(CC3)[S@](=N)(=O)C)C4=C5C=CNC5=NC=C4 [AZD6738] (first compound max 1 µM, 7x7, partner max 10 µM) | 0.436 | 0.403 | 0.894 | 0.808 | 0.516 | 0.761 | 0.958 | 0.368 | 0.327 | 0.759 | 0.596 | 0.551 | 0.279 | 0.521 | 0.849 | 0.901 | 0.991 | 0.994 | 0.832 | 0.997 |
| CCN(CCO)CCCOc1ccc2c(Nc3cc(CC(=O)Nc4cccc(F)c4)[nH]n3)ncnc2c1 [AZD2811] + C=CCn1c(=O)c2cnc(Nc3ccc(N4CCN(C)CC4)cc3)nc2n1-c1cccc(C(C)(C)O)n1 [AZD1775] (first compound max 1 µM, partner max 1 µM) | 0.317 | 0.234 | 0.842 | 0.824 | 0.6 | 0.792 | 1 | 0.283 | 0.408 | 0.293 | 0.511 | 0.436 | 0.132 | 0.679 | 0.43 | 0.877 | 0.618 | 1 | 0.728 | 0.879 |
| Cn1cnc2c(F)c(Nc3ccc(Br)cc3Cl)c(C(=O)NOCCO)cc21 [Selumetinib] + C[C@@H]1COCCN1C2=NC(=NC(=C2)C3(CC3)[S@](=N)(=O)C)C4=C5C=CNC5=NC=C4 [AZD6738] (first compound max 10 µM, 7x7, partner max 10 µM) | 0.26 | 0.347 | 0.756 | 0.69 | 0.441 | 0.712 | 0.953 | 0.284 | 0.22 | 0.175 | 0.329 | 0.579 | 0.374 | 0.503 | 0.806 | 0.826 | 0.83 | 0.817 | 0.752 | 0.878 |
| COc1nnc2ccc(N3CCC(c4ccc(OCCN5CCN(C)C(=O)[C@H]5C)cc4)CC3)nn12 [AZD5153] + Cc1c2c(nn1C)CSCc1cc(n(C)n1)CSc1cc(c3ccccc3c1)OCCCc1c(C(=O)O)n(C)c3c-2c(Cl)ccc13 [AZD5991] (first compound max 1 µM, 7x7, partner max 1 µM) | 0.355 | 0.289 | 0.733 | 0.833 | 0.37 | 0.441 | 0.898 | 0.422 | 0.365 | 1 | 0.581 | 0.495 | 0.755 | 0.86 | 0.823 | 0.628 | 0.847 | 1 | 0.792 | 0.981 |
| COc1cccc(OCCCN)c1-c1cc(Nc2cnc(C#N)cn2)n[nH]1 [Prexasertib] + CN(C)CCCOc1ccc(-c2ccc3ncc4c(c3c2)n(C2CCOCC2)c(=O)n4C)cn1 [AZD0156] (first compound max 1 µM, 7x7, partner max 1 µM) | 0.794 | 0.361 | 0.925 | 0.958 | 0.924 | 0.885 | 1 | 0.201 | 0.559 | 0.703 | 0.724 | 0.78 | 0.347 | 0.235 | 0.926 | 0.807 | 0.983 | 1 | 0.847 | 0.94 |
| COc1nnc2ccc(N3CCC(c4ccc(OCCN5CCN(C)C(=O)[C@H]5C)cc4)CC3)nn12 [AZD5153] + C=CCn1c(=O)c2cnc(Nc3ccc(N4CCN(C)CC4)cc3)nc2n1-c1cccc(C(C)(C)O)n1 [AZD1775] (first compound max 1 µM, partner max 1 µM) | 0.36 | 0.296 | 0.848 | 0.918 | 0.694 | 0.643 | 0.898 | 0.544 | 0.461 | 0.47 | 0.482 | 0.535 | 0.682 | 0.88 | 0.823 | 0.724 | 0.964 | 0.952 | 0.647 | 0.912 |
